≈ marks a conversion by molar mass, not a printed value.
Experiments:
[1] = tested on: Botrytis cinerea; experiment: Direct protectant activity against vine grey mould (Bcp); type: in vivo; conditions: foliar spray, 1 kg/ha; activity grade 1 or 2, not defined
Excerpt: (b) Direct Protectant Activity Against Vine Grey Mould (Botrytis cinerea; Bcp) The test is a direct protectant one using a foliar spray and is effected as described under (a), with the difference that the leaves are inoculated by spraying with an aqueous solution containing 10^5 conidia/ml.

[2] = tested on: Pseudocercosporella herpotrichoides; experiment: In vitro activity against wheat eyespot (Ph); type: cell-based; set-up: Ph: activity against wheat eyespot: scale not given here; conditions: in vitro, 100 ppm in agar, 11 days; activity grade 1 or 2, not defined
Description: (c) Activity Against Wheat Eyespot (Pseudocercosporella herpotrichoides; Ph)
The test is an in vitro one. Samples are prepared wherein 0.7 mls solution containing 2 mg active material dissolved in acetone is evenly dispersed in 20 ml molten half-strength potato dextrose agar (formed by dissolving 2 g potato extract, 10 g dextrose and 7.5 g agar in 1 liter of water and sterilising for 15 minutes and 121° C.) and the resulting 20 ml portions are allowed to set in 9 cm petri dishes. The concentration of active material in the resulting samples is 100 ppm. Upon setting, two plugs of 5 mm diameter taken from the advancing edge of a stock plate of a 3 to 4 week old culture of P.herpotrichoides on full strength potato dextrose agar, incubated at 20°-22° C. in darkness, are placed, equally spaced on the surface of each sample, mycelial side uppermost. The samples are incubated for 11 days at 20°-22° C. in darkness before assessment. Diametric growth is measured with the width of the plug subtracted and results compared with growth on a sample wherein 0.7 ml acetone containing no active material is dispersed in 20 ml half-strength potato agar.

[3] = tested on: Plasmopara viticola; experiment: Direct protectant activity against vine downy mildew (Pvp); type: in vivo; set-up: Pvp: direct protectant activity against vine downy mildew: scale not given here; conditions: foliar spray, 1 kg/ha; activity grade 1 or 2, not defined
Excerpt: (a) Direct Protectant Activity Against Vine Downy Mildew (Plasmopara viticola; Pvp)
The test is a direct protectant one, using a foliar spray. The lower surfaces of leaves of whole vine plants (cv Cabernet Sauvignon) are sprayed with a solution of active material in 1:1 v/v water/acetone containing 0.04% w "Triton X-155" (trade mark) (octylphenol polyoxyethylene surfactant), at a dosage of 1 kilogram of active material per hectare using a track sprayer which delivers 620 liters/ha, and after a subsequent 24 hours under normal glasshouse conditions the lower surfaces of the leaves are inoculated by spraying with an aqueous solution containing 10^4 zoosporangia/ml. The inoculated plants are kept for 24 hours in a high humidity compartment, 5 days under normal glasshouse conditions and then returned for a further 24 hours to high humidity. Assessment is based on the percentage of leaf area covered by sporulation compared with that on control leaves.

[4] = tested on: Fusarium culmorum; experiment: Activity against seedling wheat blight, soil drench (Fs); type: in vivo; set-up: scale not given here; conditions: 10 kg/ha, 21 days, activity grade 1 or 2, not defined
Description: (d) Activity Against Seedling Wheat Blight (Fusarium culmorum; Fs)
The test is an anti-sporulant one using a soil drench. Surface sterilised wheat seeds (var Waggoner) are inoculated by soaking in an aqueous suspension containing 7×10^5 spores/ml (60 mg seed per 80 ml suspension) at 22° C. for 6 hours. The seeds are then sown in pots (5 per pot) in sand at a depth of 1 cm. 1 day after inoculation and planting the active material is applied at a rate of 10 kg/ha by pouring on a soil drench (concentration 0.36 g/l active material in 12% v/v acetone/water) evenly over the sand. The pots are then transferred to a glasshouse, kept at 25° C. and watered sparingly. 21 days after inoculation the resulting seedlings are removed from the pots and their roots are gently washed. Visual assessment is made based on lesion development on stem base and upper roots in comparison with control seedlings.

[5] = tested on: Leptosphaeria nodorum; experiment: Direct antisporulant activity against wheat leafspot (Ln); type: in vivo; set-up: scale not given here; conditions: foliar spray, 1 kg/ha; activity grade 1 or 2, not defined
Description: (e) Activity Against Wheat Leafspot (Leptosphaeria nodorum; Ln) The test is a direct antisporulant one, using a foliar spray. Leaves of wheat plants ([…]), at the single leaf stage, are inoculated by spraying with an aqueous suspension containing 8×10^5 spores/mi. The inoculated plants are kept for 24 hours in a high humidity compartment prior to treatment. […] After drying, the plants are kept for 5 days under normal glasshouse conditions, followed by assessment. Assessment is based on the percentage of leaf area covered by sporulation compared with that on leaves of control plants.

[6] = tested on: Alternaria Solani; experiment: Direct protectant activity against tomato early blight (As); type: in vivo; set-up: As: activity against tomato early blight: scale not given here; conditions: foliar spray as under (a), 8 days; activity grade 1 or 2, not defined; further: dose 1000 g/ha
Description: (g) Activity Against Tomato Early Blight (Alternaria Solani; As). The test is a direct protectant one using a foliar spray. The upper surfaces of leaves of young tomato plants are sprayed with a solution of active material as described in (a) above. After 24 hours under normal glasshouse conditions, the upper surfaces of the leaves are inoculated by spraying with an aqueous suspension containing 10^4 spores/ml. The inoculated plants are kept for 72 hours in a high humidity compartment and are then removed to lower humidity (50-70% relative humidity). Assessment is made 8 days after inoculation.

[7] = tested on: Aspergillus niger; experiment: Minimum inhibitory concentration, Aspergillus niger (An); type: cell-based, Aspergillus niger (CMI 17454); conditions: 30° C., 3, 7 and 10 days
Description: (§1) Inocula of the fungi Aspergillus niger, Cladosporium resinae and Chaetomium globosum were prepared containing 5×10^5 conidia/ml in a potato dextrose broth. The potato dextrose broth was prepared by suspending 4 g potato extract and 20 g dextrose in 1 liter of distilled water, warming to achieve solution, separating into aliquots and sterilising by autoclaving at 121° C. for 15 minutes.
(§2) Test procedures were as follows:
(§3) (ii) Dilution Series for Other Test Bacteria, Yeast and Filamentous Fungi
(§4) Dilution series from the stock solution of each compound were prepared in sterile distilled water. These contained 50, 100, 500 and 1000 ppm compound. To duplicate wells of a compartmentalised square petri dish 0.3 ml of each test compound concentration was added together with 2.7 ml of one of the microbial inocula described above. This gave final concentrations of the test compound of 5, 10, 50 and 100 ppm.
(§5) After incubation, in the dark, at 30° C. the wells were examined for the presence or absence of growth. Bacterial and yeast cultures were examined after 24 hours and 72 hours incubation and the fungi cultures after 3, 7 and 10 days.
(§6) By means of the above tests minimum inhibitory concentrations were determined for the various test compounds.

[8] = tested on: Desulfovibrio sp.; experiment: Minimum inhibitory concentration, sulphate-reducing bacteria (Dsp); type: cell-based; conditions: 30° C., 2, 5 and 10 days
Description: The sulphate reducing bacteria Desulfovibrio sp. were cultured in a modified Postgate's Medium B for 48 hours at 30° C. and used directly as an inoculum. The modified Postgate's Medium B consisted of 0.5 g dipotassium hydrogen phosphate, 1 g ammonium chloride, 1 g sodium sulphate, 5 g sodium lactate, 1 g yeast extract, 0.1 ml thioglycolic acid, 0.1 ml ascorbic acid, 0.5 g ferrous sulphate heptahydrate, 750 ml aged seawater and 250 ml distilled water, pH adjusted to 7.8, divided into aliquots and sterilised by autoclaving at 121° C. for 15 minutes. […] Test procedures were as follows: (i) Suphate-reducing Bacteria Test Dilution Series Duplicate aliquots (9.9 ml) of dilution series from the stock solutions of each compound were prepared in a modified Postgate's Medium B described above. These contained 100 ppm compound. These were then inoculated with 0.1 ml of inoculum. After incubation at 30° C., the presence or absence of growth--as indicated by a blackening of the medium due to ferrous sulphide production--was recorded at 2, 5 and 10 days. […] By means of the above tests minimum inhibitory concentrations were determined for the various test compounds.

[9] = tested on: Chaetomium globosum; experiment: Minimum inhibitory concentration, Chaetomium globosum (Chg); type: cell-based; conditions: 30° C., 3, 7 and 10 days
Description: as §1, §2, §3, §4, §5, §6

[10] = tested on: Staphylococcus aureus; experiment: Minimum inhibitory concentration, Staphylococcus aureus (Sa); type: cell-based, Staphylococcus aureus (NCIB 6571); conditions: 30° C., 24 and 72 hours
Description: (§7) In respect of S. aureus, B. subtilis and E. coli, the microorganisms were cultured in 50 ml aliquots of a tryptone soya broth in 250 ml conical flasks at 30° C. on a rotary shaker at 200 rpm for 24 hours. Tryptone soya broth was prepared by adding 17 g pancreatic digest of casein, 3 g […] digest of soyabean meal, 5 g of sodium chloride, 2.5 g of dipotassium hydrogen phosphate and 2.5 g of dextrose to 1 liter of distilled water, mixing and sterilising by autoclaving at 121° C. for 15 minutes. 1 ml aliquots of the resulting cultures were mixed with 99 ml of fresh tryptone soya broth and used as inocula for tests. […] Test procedures were as follows: (ii) Dilution Series for Other Test Bacteria, Yeast and Filamentous Fungi Dilution series from the stock solution of each compound were prepared in sterile distilled water. These contained 50, 100, 500 and 1000 ppm compound. To duplicate wells of a compartmentalised square petri dish 0.3 ml of each test compound concentration was added together with 2.7 ml of one of the microbial inocula described above. […] After incubation, in the dark, at 30° C. the wells were examined for the presence or absence of growth. Bacterial and yeast cultures were examined after 24 hours and 72 hours incubation and the fungi cultures after 3, 7 and 10 days. By means of the above tests minimum inhibitory concentrations were determined for the various test compounds.

[11] = tested on: Erysiphe graminis f.sp. hordei; experiment: Direct antisporulant activity against barley powdery mildew (Eg); type: in vivo; set-up: scale not given here; conditions: foliar spray, 1 kg/ha; activity grade 1 or 2, not defined
Excerpt: (f) Activity Against Barley Powdery Mildew (Erysiphe graminis f.sp. hordei; Eg) The test is a direct antisporulant one, using a foliar spray. Leaves of barley seedlings, cultivar Golden Promise, are inoculated by dusting with mildew conidia one day prior to treatment with the test compound. The inoculated plants are kept overnight at glasshouse ambient temperature and humidity prior to treatment. […] After drying, plants are returned to a compartment at ambient temperature and humidity for up to 7 days, followed by assessment. Assessment is based on the percentage of leaf area covered by sporulation compared with that on leaves of control plants.

[12] = tested on: Escherichia coli; experiment: Minimum inhibitory concentration, Escherichia coli (Ec); type: cell-based, Escherichia coli (NCIB 9517); conditions: 30° C., 24 and 72 hours
Description: as §7

[13] = tested on: Cladosporium resinae; experiment: Minimum inhibitory concentration, Cladosporium resinae (Cr); type: cell-based; conditions: Amorphotheca resinae, 30° C., 3, 7 and 10 days
Description: as §1, §2, §3, §4, §5, §6

[14] = tested on: Saccharomyces cerevisiae; experiment: Minimum inhibitory concentration, yeast (Sc); type: cell-based, Saccharomyces cerevisiae (ATCC 9763); conditions: 30° C., 24 and 72 hours
Description: Inocula of S. cerevisiae were prepared as for S. aureus, B. subtilis and E. coli, but using yeast malt broth in place of the typtone soya broth. The yeast malt broth was prepared by suspending 3 g yeast extract, 3 g malt extract, 5 g peptone and 10 g dextrose in 1 liter of distilled water, warming to achieve solution and sterilising by autoclaving at 121° C. for 15 minutes.
as §2, §3, §4, §5, §6

[15] = tested on: Bacillus subtilis; experiment: Minimum inhibitory concentration, Bacillus subtilis (Bs); type: cell-based; conditions: 30° C., 24 and 72 hours
Description: as §7

[16] = tested on: Plasmopara viticola; experiment: Antisporulant activity against vine downy mildew (Pva); type: in vivo; conditions: foliar spray, 1 kg/ha; activity grade 1 or 2, not defined
Description: (j) Antisporulant Activity Against Vine Downy Mildew (Plasmopara viticola; Pva)
The test is a direct antisporulant one using a foliar spray. The lower surfaces of leaves of whole vine plants (cv Cabernet Sauvignon) are inoculated by spraying with an aqueous suspension containing 10^4 zoosporangia/ml 2 days prior to treatment with the test compound. The inoculated plants are kept for 24 hours in a high humidity compartment, and then 24 hours at glasshouse ambient temperature and humidity. When the plants are dry, infected leaves are sprayed on their lower surfaces with a solution of active material in 1:1 water/acetone containing 0.04% w/w "Triton X-155" (trade mark) (an octylphenol polyethoxylate surfactant). The spraying is carried out with a moving track sprayer with delivers 620 liter/ha, and the concentration of active material is calculated to give an application rate of 1 kg/ha. After spraying, the plants are returned to normal glasshouse conditions for 96 hours and are then transferred to the high humidity compartment for 24 hours to induce sporulation, prior to assessment. Assessment is visual and is based on the percentage of the leaf area covered by sporulation compared with that on control leaves.

[17] = tested on: Podosphaera leucotricha; experiment: Direct antisporulant activity against apple powdery mildew (Pl); type: in vivo; conditions: foliar spray, 1 kg/ha; activity grade 1 or 2, not defined
Excerpt: (h) Activity Against Apple Powdery Mildew (Podosphaera leucotricha; Pl) The test is a direct anti-sporulant one using a foliar spray. The upper surfaces of leaves of whole seedlings are inoculated by spraying with an aqueous suspension containing 10^5 conidia/ml 2 days prior to treatment with the test compound. The inoculated plants are immediately dried and kept at glasshouse ambient temperatures and humidity prior to treatment. […] After drying the plants are returned to a compartment at ambient temperature and humidity for up to 9 days, followed by assessment. Assessment is based on the percentage of the leaf area covered by sporulation compared with that on leaves of control plants.

SMILES	Bcp: direct protectant activity against vine grey mould [1]	Ph: activity against wheat eyespot [2]	Pvp: direct protectant activity against vine downy mildew [3]	Fs: activity against seedling wheat blight [4]	Eg: activity against barley powdery mildew [11]	Other: Pva, antisporulant activity against vine downy mildew [16]	also measured
CC1(C)Cc2cccc([N+]([O-])=NC#N)c2O1 [Example 2]	2	2	1	2	–	–	–
Cc1ccc([N+]([O-])=NC#N)c2c1CC(C)(C)O2 [Example 3]	1	2	2	1	–	–	Ln: activity against wheat leafspot [5]: 1; As: activity against tomato early blight [6]: 1
Cc1cc2c(F)ccc([N+]([O-])=NC#N)c2o1 [Example 22]	1	2	–	2	2	–	MIC [7]: 10 µg/mL (≈ 45.6 µM); MIC [8]: 50 µg/mL (≈ 228 µM); MIC [9]: 5 µg/mL (≈ 22.8 µM); MIC [10]: > 100 µg/mL; MIC [12]: > 100 µg/mL; MIC [13]: 10 to 25 µg/mL (≈ 45.6 to 114 µM); MIC [14]: 25 µg/mL (≈ 114 µM); MIC [15]: 50 to 100 µg/mL (≈ 228 to 456 µM)
COC(=O)N=Nc1cc(C)cc2c1OC(C)C2 (centres unmarked) [Example 33]	–	–	1	–	1	1	–
COC(=O)N=Nc1cc(Cl)c(C)c2c1OC(C)C2 (centres unmarked) [Example 35]	–	1	1	–	–	1	–
COCC1Cc2c(Cl)c(C)cc(N=NC(=O)OC)c2O1 (centres unmarked) [Example 36]	–	2	1	–	2	–	Other: Pl, activity against apple powdery mildew [17]: 2

Reference: patent publication US5376679A, “Bicyclic or tricyclic biocidal compounds” (Shell Internationale Research Maatschappij B.V., priority 1988, dated 1994)
